The results in this text go back to ChEMBL document CHEMBL1123556, “Synthesis of antimicrobial agents. 1. Syntheses and antibacterial activities of 7-(azole substituted)quinolones” (J Med Chem, 1987).

The nature of data set [1]: Concentrations in serum after 120 minutes at 50 mg / kg oral administration. The data set is classed as ADME, cell-free.
The nature of data set [2]: Concentrations in serum after 240 minutes at 50 mg / kg oral administration. The data set is classed as ADME.
Data set [3] in a line: Concentrations in serum after 30 minutes at 50 mg / kg oral administration. The data set is classed as ADME, cell-free.
The nature of data set [4]: Concentrations in serum after 60 minutes at 50 mg / kg oral administration. It counts as ADME, cell-free.
Data set [5] is described as follows: Total serum concentrations at 0 to 4 hours interval was determined by 50 mg / kg oral administration. It counts as ADME, cell-free.
The subject of data set [6] is Bacillus subtilis. Put plainly: In vitro antibacterial activity against Bacillus subtilis ATCC 6633. The data set is classed as functional.
Data set [7] has as its system Klebsiella pneumoniae. Put plainly: microbe, parasite or virus in culture. It counts as functional.
Description: In vitro antibacterial activity against Klebsiella pneumoniae PCI-602
Data set [8] concerns Mus musculus. Put plainly: In vivo antibacterial activity against Escherichia coli (KC-14) was determined for the compound administered perorally; Value ranges from […]-[…]. It counts as functional. Conditions: po.
Data set [9] relates to Proteus vulgaris. The experiment in a line: In vitro antibacterial activity against Proteus vulgaris HX-19. It counts as functional.
Data set [10] relates to Pseudomonas aeruginosa. Put plainly: In vitro antibacterial activity against Pseudomonas aeruginosa IFO 3445. The data set is classed as functional.
The test system of data set [11] is Salmonella paratyphi. The experiment in a line: microbe, parasite or virus in culture. It counts as functional, Salmonella enterica subsp. enterica serovar Paratyphi A. Particulars: Salmonella enterica.
Description: In vitro antibacterial activity against Salmonella paratyphi 1015
The subject of data set [12] is Staphylococcus epidermidis. Put plainly: microbe, parasite or virus in culture. The data set is classed as functional.
Description: In vitro antibacterial activity against Staphylococcus epidermidis IAM 1576
The test system of data set [13] is Escherichia coli. The experiment in a line: In vitro antibacterial activity against Escherichia coli NIHJ JC-2. It counts as functional.
Data set [14] concerns Staphylococcus aureus. The experiment in a line: In vitro antibacterial activity against Staphylococcus aureus FDA 209P JC-1. The data set is classed as functional.
Data set [15] deals with Mus musculus. Put plainly: In vivo antibacterial activity against Escherichia coli (KC-14) was determined for the compound administered perorally. It counts as functional. Particulars: po.

≈ marks a conversion by molar mass, not a printed value.

The molecule `CCn1cc(C(=O)O)c(=O)c2cc(F)c(-n3cccc3)c(F)c21` yielded a concentration at 2 h in data set [1] of 3230 ng/mL. In [2], this molecule displayed a concentration at 4 h of 1650 ng/mL. In data set [3], this molecule yielded a concentration at 0.5 h of 10700 ng/mL. The molecule also displayed a concentration at 1 h in data set [4] of 7070 ng/mL. In addition, the Concentration in serum in data set [5] came out at 17200 ng/mL. In addition, the MIC in data set [6] worked out at 0.05 µg/mL (≈ 0.157 µM); in [7], 0.2 µg/mL (≈ 0.628 µM); in [9] it was 0.1 µg/mL (≈ 0.314 µM); in [10], 12.5 µg/mL (≈ 39.3 µM); in data set [11] it was 0.2 µg/mL (≈ 0.628 µM); in data set [12] it was 1.56 µg/mL (≈ 4.9 µM). For the same molecule, the MIC in [13] was 3.13 µg/mL (≈ 9.83 µM); in data set [14], 0.39 µg/mL (≈ 1.23 µM). It took a dose of 11.7 mg/kg to reach the 50% effect level in data set [8] (ED50).

Regarding `CCn1cc(C(=O)O)c(=O)c2cc(F)c(-n3ccnc3C)c(F)c21`, the MIC is 0.78 µg/mL (≈ 2.34 µM) in [6]; 0.39 µg/mL (≈ 1.17 µM) in [7]; 0.2 µg/mL (≈ 0.6 µM) in data set [9]; 25 µg/mL (≈ 75 µM) in data set [10]; 0.39 µg/mL (≈ 1.17 µM) in [11]; 25 µg/mL (≈ 75 µM) in data set [12]. Besides, the MIC is 3.13 µg/mL (≈ 9.39 µM) in data set [13] and 6.25 µg/mL (≈ 18.8 µM) in data set [14].

On to `CCn1cc(C(=O)O)c(=O)c2cc(F)c(-n3cnnc3)cc21`, for which the MIC in data set [6] came out at 25 µg/mL (≈ 82.7 µM); in data set [7], 12.5 µg/mL (≈ 41.4 µM); in data set [9] it was 25 µg/mL (≈ 82.7 µM); in [10] it was 25 µg/mL (≈ 82.7 µM); in data set [11], 3.13 µg/mL (≈ 10.4 µM); in data set [12] it was 25 µg/mL (≈ 82.7 µM). The MIC in data set [13] and in data set [14] was 25 µg/mL (≈ 82.7 µM) each time.

In the case of `CCn1cc(C(=O)O)c(=O)c2cc(F)c(-n3cnc(/C=N/O)c3)c(F)c21`, the MIC came to 0.78 µg/mL (≈ 2.15 µM) in data set [6]; 0.39 µg/mL (≈ 1.08 µM) in data set [7]; 0.78 µg/mL (≈ 2.15 µM) in data set [9]; 25 µg/mL (≈ 69 µM) in [10]; 0.39 µg/mL (≈ 1.08 µM) in data set [11]; 25 µg/mL (≈ 69 µM) in data set [12]. The MIC came out at 6.25 µg/mL (≈ 17.3 µM) in [13] and 3.13 µg/mL (≈ 8.64 µM) in data set [14].

As to `CCn1cc(C(=O)O)c(=O)c2cc(F)c(-n3cnc4ccccc43)c(F)c21`, the MIC in data set [6] was 0.05 µg/mL (≈ 0.135 µM); in data set [7], 0.39 µg/mL (≈ 1.06 µM); in data set [9], 0.78 µg/mL (≈ 2.11 µM); in data set [10], 12.5 µg/mL (≈ 33.8 µM); in data set [11] it was 0.78 µg/mL (≈ 2.11 µM); in data set [12] it was 1.56 µg/mL (≈ 4.22 µM). Besides, the figures for the MIC in data set [13] and in data set [14] were 1.56 µg/mL (≈ 4.22 µM) and 0.2 µg/mL (≈ 0.542 µM), respectively.

On to `CCn1cc(C(=O)O)c(=O)c2cc(F)c(-n3cnc(CN(C)C)c3)c(F)c21`, for which the MIC in data set [6] worked out at 6.25 µg/mL (≈ 16.6 µM); in data set [7] it was 3.13 µg/mL (≈ 8.32 µM); in data set [9] it was 6.25 µg/mL (≈ 16.6 µM); in data set [10], 25 µg/mL (≈ 66.4 µM); in data set [11], 6.25 µg/mL (≈ 16.6 µM); in data set [12], 25 µg/mL (≈ 66.4 µM). For the same molecule, the MIC in data set [13] stood at 25 µg/mL (≈ 66.4 µM); in data set [14] it was 6.25 µg/mL (≈ 16.6 µM).

On to `CCn1cc(C(=O)O)c(=O)c2cc(F)c(-n3cnc(C(=O)N(C)C)c3)c(F)c21`, for which the MIC in [6] amounted to 6.25 µg/mL (≈ 16 µM); in data set [7] it was 1.56 µg/mL (≈ 4 µM); in data set [9] it was 3.13 µg/mL (≈ 8.02 µM); in data set [10], 25 µg/mL (≈ 64 µM); in data set [11], 3.13 µg/mL (≈ 8.02 µM); in data set [12], 25 µg/mL (≈ 64 µM). The results for the MIC in [13] and in [14] were 25 µg/mL (≈ 64 µM) and 12.5 µg/mL (≈ 32 µM), respectively.

With `CCn1cc(C(=O)O)c(=O)c2cc(F)c(-n3cnc([N+](=O)[O-])c3)c(F)c21`, the MIC was 0.39 µg/mL (≈ 1.07 µM) in [6]; 0.39 µg/mL (≈ 1.07 µM) in [7]; 3.13 µg/mL (≈ 8.59 µM) in [9]; 25 µg/mL (≈ 68.6 µM) in data set [10]; 1.56 µg/mL (≈ 4.28 µM) in data set [11]; 6.25 µg/mL (≈ 17.2 µM) in [12]. Further, the MIC was 6.25 µg/mL (≈ 17.2 µM) in data set [13] and 1.56 µg/mL (≈ 4.28 µM) in [14].

Take `CCn1cc(C(=O)O)c(=O)c2cc(F)c(-n3cnc(C(=O)OC)c3)c(F)c21`: the MIC in [6] is 12.5 µg/mL (≈ 33.1 µM); in [7], 3.13 µg/mL (≈ 8.3 µM); in data set [9], 1.56 µg/mL (≈ 4.13 µM); in data set [10], 25 µg/mL (≈ 66.3 µM); in data set [11] it was 3.13 µg/mL (≈ 8.3 µM); in data set [12] it was 25 µg/mL (≈ 66.3 µM). Besides, the MIC in data set [13] and in data set [14] was 25 µg/mL (≈ 66.3 µM) in each case.

As for `CCn1cc(C(=O)O)c(=O)c2cc(F)c(-n3cnc(CO)c3)c(F)c21`, the MIC in data set [6] stood at 6.25 µg/mL (≈ 17.9 µM); in [7], 0.78 µg/mL (≈ 2.23 µM); in data set [9] it was 0.78 µg/mL (≈ 2.23 µM); in data set [10] it was 25 µg/mL (≈ 71.6 µM); in data set [11], 0.39 µg/mL (≈ 1.12 µM); in [12] it was 25 µg/mL (≈ 71.6 µM). Also, the MIC came out at 6.25 µg/mL (≈ 17.9 µM) in [13] and 25 µg/mL (≈ 71.6 µM) in data set [14].

The molecule `CCn1cc(C(=O)O)c(=O)c2cc(F)c(-n3cccc3)cc21` [IRLOXACIN] yielded a concentration at 2 h in data set [1] of 840 ng/mL. This molecule had a concentration at 4 h in [2] of 550 ng/mL. The concentration at 0.5 h in [3] was determined as 5530 ng/mL. In data set [4], this molecule displayed a concentration at 1 h of 2200 ng/mL. The molecule also had a Concentration in serum in data set [5] of 6800 ng/mL. For the same molecule, the MIC in [6] was 0.05 µg/mL (≈ 0.167 µM); in [7] it was 0.2 µg/mL (≈ 0.666 µM); in [9], 0.1 µg/mL (≈ 0.333 µM); in [10], 12.5 µg/mL (≈ 41.6 µM); in [11], 0.1 µg/mL (≈ 0.333 µM); in data set [12], 1.56 µg/mL (≈ 5.19 µM). The figures for the MIC in data set [13] and in data set [14] were 3.13 µg/mL (≈ 10.4 µM) and 0.39 µg/mL (≈ 1.3 µM), respectively. Further, in data set [15], the ED50 (commonly the dose at which the effect has come halfway, by size or by number of responders) was 50 mg/kg.
